Reference: patent US9303017B2, “2,5-disubstituted-pyridyl nicotinic ligands, and methods of use thereof” (Georgetown University, priority 2011, dated 2016)
Where two headings read alike, the source gives them in different places.

What was measured:
human α4β2 nAChRs = human α4β2 nAChRs (Homo sapiens (Human), UniProt P17787+P43681); assay: 86Rb+ efflux assay (activation and desensitization), α4β2; assay type: cell-based; conditions: for Emax: read-out: Emax α4β2 nAChRs; for IC50: desensitization
Experimental: (§1) In Vitro Effects on nAChR Function. […] Their agonist activities were assessed by measuring stimulated ^86Rb^+ efflux from stably transfected cells, either expressing human α4β2 nAChRs or rat α3β4 receptors.
(§2) Cell Lines and Cell Culture. The cell lines expressing defined rat nAChR subtypes were established previously by stably transfecting HEK 293 cells with rat nAChR subunit genes. The cell line expressing human α4β2 nAChRs, YXα4β2H1, was established recently. These cell lines were maintained in minimum essential medium (MEM) supplemented with 10% fetal bovine serum, 100 units/mL penicillin G, […] and selective antibiotics at 37° C. with 5% CO2 in a humidified incubator. Fetal bovine serum was provided by Gemini Bio-Products (Woodland, Calif.). Tissue culture medium and antibiotics were obtained from Invitrogen Corporation (Carlsbad, Calif.), unless otherwise stated.
(§3) ^86Rb^+ Efflux Assay. Functional properties of compounds at nAChRs expressed in the transfected cells were measured using ^86Rb^+ efflux assays as described previously. In brief, cells expressing human α4β2 or rat α3β4 nAChRs were plated into 24-well plates coated with poly-D-lysine. The plated cells were grown at 37° C. for 18 to 24 hour to reach 85-95% confluence. The cells were then incubated in growth medium (0.5 mL/well) containing ^86Rb^+ (2 μCi/mL) for 4 hour at 37° C. The loading mixture was then aspirated, and the cells were washed four times with 1 mL buffer (15 mM HEPES, 140 mM NaCl, 2 mM KCl, 1 mM MgSO4, 1.8 mM CaCl2, 11 mM Glucose, pH 7.4). One mL of buffer with or without compounds to be tested was then added to each well. After incubation for 2 min, the assay buffer was collected for measurements of ^86Rb^+ released from the cells. Cells were then lysed by adding 1 mL of 100 mM NaOH to each well, and the lysate was collected for determination of the amount of ^86Rb^+ that was in the cells at the end of the efflux assay. Radioactivity of assay samples and lysates was measured by liquid scintillation counting. Total loading (cpm) was calculated as the sum of the assay sample and the lysate of each well. The amount of ^86Rb^+ efflux was expressed as a percentage of ^86Rb^+ loaded. […] For obtaining EC50 and Emax values, stimulation curves were constructed in which 8 different concentrations of a ligand were included in the assay. […] EC50, Emax and IC50(10′) values were determined by nonlinear least-squares regression analyses (GraphPad, San Diego, Calif.).
(§4) The functional properties of the ligands were determined by ^86Rb^+ efflux assays in cells expressing α3β4 and α4β2 nAChR subtypes. The functional activity of each ligand was measured for its agonism, antagonism and desensitization ability. Agonist activity for each of the ligands was tested at eight different concentrations. […] The full concentration-effect curves generated potency (EC50) and efficacy (Emax) of each ligand. […] We tested each ligand for antagonist activity at eight concentrations. The potency (IC50(0′)) of each ligand as an antagonist was derived from the full concentration-effect curves.

α3β4 nAChR = α3β4 nAChR (Rattus norvegicus (Rat), UniProt P04757+P12392); assay: [3H]-epibatidine competition binding, α3β4; conditions: Table 1; mean of 3 to 5 measurements
Experimental: In Vitro Binding Affinities for nAChR Subtypes. […] To determine selectivities of these compounds in binding assays among the three predominant nAChR subtypes, α3β4, α4β2 and α7, the ratios of Ki values (α3β4/α4β2 and α7/α4β2) were determined.
as §2
Briefly, cultured cells at >80% confluence were removed from their flasks (80 cm^2) with a disposable cell scraper and placed in 10 mL of 50 mM Tris.HCl buffer (pH 7.4, 4° C.). The cell suspension was centrifuged at 10,000×g for 5 min and the pellet was collected. The cell pellet was then homogenized in 10 mL buffer with a polytron homogenizer and centrifuged at 36,000 g for 10 min at 4° C. The membrane pellet was resuspended in fresh buffer, and aliquots of the membrane preparation were used for binding assays. […] Bound and free ligands were separated by vacuum filtration through Whatman GF/C filters treated with 0.5% polyethylenimine. The filter-retained radioactivity was measured by liquid scintillation counting. Specific binding was defined as the difference between total binding and nonspecific binding. Data from competition binding assays were analyzed using Prism 5 (GraphPad Software, San Diego, Calif.).
Pharmacological Properties. We measured the in vitro binding affinities of the ligands for defined receptor subtypes (α2β2, α2β4, α3β2, α3β4, α4β2, α4β4, α6β2, α6β4, and α7) expressed in stably transfected cell lines. […] Rat forebrain homogenates were included to allow comparison between the heterologous and native α4β2 and α7 nAChRs. See Table 1 for binding affinity values (Ki) of the ligands at the three major nAChR subtypes (α3β4. α4β2 and α7).

rat α3β4 nAChRs = rat α3β4 nAChRs (Rattus norvegicus (Rat), UniProt P04757+P12392); assay: 86Rb+ efflux assay (activation and desensitization), α3β4; assay type: cell-based; conditions: read-out: IC50(10′) α3β4 nAChRs
Experimental: as §1, §2, §3, §4

Q: How did the EC50 (human α4β2 nAChRs; agonist activity, ND = no significant stimulated efflux detected) turn out when `CCCCC#Cc1cnc(C)c(OC[C@@H]2CCN2)c1` [(S)-15, (S)-3-(azetidin-2-ylmethoxy)-5-(hex-1-ynyl)-2-methylpyridine] was run?
A: 0.31 µM

Q: And the Emax (human α4β2 nAChRs; agonist efficacy normalized to Emax of nicotine, ND = no significant stimulated efflux detected)?
A: < 20%

Q: And the IC50 (human α4β2 nAChRs; 10 min pre-treatment, Table 3 (Example 4), read-out: IC50(10′) α4β2)?
A: 0.018 µM

Q: And the IC50 (human α4β2 nAChRs; 10 min pre-incubation before 100 μM nicotine, Table 2, read-out: IC50(10′) α4β2 nAChRs)?
A: 0.18 µM

Q: And the Emax (human α4β2 nAChRs)?
A: 15%

Q: And the Ki (α3β4 nAChR)?
A: 230 µM

Q: What about the IC50 (rat α3β4 nAChRs) of the same molecule?
A: > 10 µM
